Results as given in patent publication US10028999B2, “PAR-1 based therapeutic conjugates and uses thereof” (TEL HASHOMER MEDICAL RESEARCH INFRASTRUCTURE AND SERVICES …, priority 2014, dated 2018).
Peptide text beside a SMILES is read from it. * marks the point of attachment. Tos = Cc1ccc(S(=O)(=O)*)cc1; CH2Cl = ClC*

Columns and labels:
[1] = tested on: EAN rats (experimental autoimmune neuritis); test: Electrophysiological tests in EAN rats treated with thrombin inhibitors; format: in vivo, rat
Protocol: (§1) Electrophysiological tests of the sciatic nerves were performed on day 32 PI (post-immunization/induction) in EAN model (FIGS. 3A-C) and 8 weeks after STZ induction (FIG. 4A-C). Rats were anesthetized with Phenobarbital (IP, 24 mg/kg). Two pairs of monopolar needle electrodes were used to stimulate the tail nerves. Stimulating cathodes were inserted to a depth of 4-5 mm at the base of the tail and 4 cm distally. An anode at each location was inserted into the skin (4-5 mm depth) 1 cm proximal to the cathode. A ground electrode was placed between the distal stimulating electrode and the active recording electrode. Electromyography (EMG) recordings of responses of the tail muscles to proximal and distal stimuli, made by a pair of ring electrodes coated with electrode jelly and placed 1 cm distally to the distal stimulating electrode, were collected. The tail skin was wiped with alcohol prior to placing the electrodes. […] Both proximal and distal latencies were measured using time intervals from the stimulus artifact to the first deflection from baseline. To calculate the motor nerve conduction velocity (MNCV), the distance between stimulating cathodes was divided by the latency difference. Amplitudes of the compound muscle action potential (CMAP) from both proximal and distal stimulations were measured from the negative to the positive peaks. The reduction of the proximal CMAP compared with that of the distal CMAP was calculated by the equation: [(distal CMAP-proximal CMAP)/distalCMAP×100] and was defined as the R ratio. Temperature differences were minimized by conducting the study as soon as the anesthesia had taken effect and by warming the tail with a heating lamp.
(§2) FIGS. 3 and 4 each include 3 graphs summarizing the results from electrophysiological tests of treated rats, as follows: distal latency (3A, 4A) referring to the time, in milliseconds, between distal stimulation to recording; conduction velocity (3B, 4B) referring to the distance over time, in meters/seconds; and amplitude (3C, 4C) referring to the size of the response as measured in millivolts.

[2] = tested on: C6 glioma cells; test: Thrombin-like activity in C6 glioma cell line; format: cell-based; details: four hours after treatment
[3] = tested on: STZ-induced diabetic rats; test: Electrophysiological tests in STZ-induced diabetic rats treated with thrombin inhibitors; format: in vivo, rat; details: STZ rats
Protocol: as §1, §2

[4] = tested on: blood coagulation (aPTT); test: Activated partial thromboplastin time test; format: biochemical; details: for aPTT: without conjugate 30.5; for Potency score in aPTT test: most potent (1) to least potent (5)
[5] = target: Protein C (Homo sapiens, UniProt P04070); test: Protein C activity test; format: biochemical; details: for aPC: without conjugate 109; for Potency score in Protein C activity test: most potent (1) to least potent (5)
[6] = tested on: Factor Xa; test: Factor Xa activity test; format: biochemical; details: for Fxa: without conjugate 0.11; for Potency score in Factor Xa activity test: most potent (1) to least potent (5)
[7] = tested on: blood coagulation
[8] = tested on: CNS-1 glioma cells
Protocol: The thrombin-like activity of CNS-1 cells was initially measured in control cells and in cells treated with (i) the short peptide conjugate (tosyl-DPR-CK, corresponding to a conjugate that includes the peptide termed 3AA) or (ii) the long conjugate (tosyl-NATLDPR-CK, corresponding to a conjugate that includes the peptide termed 7AA (SEQ ID No. 4)) at high ([…]) and low (100 nM) concentrations (FIG. 16).

[9] = tested on: thrombin; test: Thrombin time test; format: biochemical; details: for TT: without conjugate 13.4; for Potency score in TT test: most potent (1) to least potent (5)
[10] = tested on: CNS-1 glioma cells; test: Proliferation (XTT) of CNS-1 glioma cells; format: cell-based, rat; details: CNS-1 cells; for inhibition of cell proliferation: XTT, 48 hours
Protocol: (§3) Several peptide moieties (Table 1) according to the present invention were synthesized. Proliferation was measured, by means of XTT, in C6 and CNS-1 glioma cell-lines (FIGS. 8A and 8B, respectively). In C6 cells, proliferation was measured before (black bar) and after cells were treated with the PAR-1 antagonist SCH79797 at various doses ranging from 10 nM to 10 μM (grey bars; FIG. 8A).
In another set of experiments, CNS-1 glioma cell-line was treated with increased doses of TLCK (125 nM to 14 mM), for 48 hours (FIG. 9; grey bars). Proliferation was measured by means of XTT in comparison to non-treated cells (control; black bar).
Initially, CNS-1 glioma cells were treated with increased concentrations of two peptide conjugates: a short conjugate of the formula tosyl-DPR-CK (comprising 3 amino acids, 3AA) or a long conjugate of the formula tosyl-NATLDPR-CK (comprising 7 amino acids, 7AA; SEQ ID NO: 4) in concentrations of 100 pM, 1 nM and 10 nM, for 48 hours (FIG. 10). FIG. 10 provides the results of an XTT assay used for assessing cell proliferation.
The effect of the peptide conjugate alone, or in combination with PAR-1 antagonist, SCH79797, on cell proliferation was determined in comparison to untreated cells or cells treated with PAR-1 antagonist (FIG. 13).

[11] = in vivo; details: ip, 2 micromolar, in 100 ul
Protocol: The concentrations of the peptide conjugates in the plasma of animals treated therewith was evaluated by a unique method that was based on the ability of the peptide conjugates to inhibit thrombin activity. […] The essay initiated by obtaining blood samples from animals which received the peptide conjugates (100 microliter containing 2 micromolar, i.p.). The blood samples, after being maintained in citrate buffered sample tubes, were subjected to centrifugation for plasma separation. Samples were then filtered through a membrane with a 10 kD molecular weight cutoff which excluded all blood coagulation factors (by addition of calcium to neutralize the anticoagulation effect of the citrate buffer). Coagulation factor-free plasma samples were then applied to the thrombin activity assay.
The resulting thrombin activities in each plasma sample either diluted (×10) or as is were given in arbitrary units (FIGS. 18-18D, diagonal shading and dotted bars, respectively). However, the actual concentration were deduced by comparing the activities to calibrated activities generated with known concentrations of the conjugate peptides. The calibration data included the following thrombin activities: activity in a sample of thrombin in the absence of plasma and conjugates (black bars, FIGS. 18A-18D); and activity in four samples of thrombin and known concentrations of the peptide conjugates (10 nM, 100 nM, 1 micromolar and 10 micromolar; bars 2nd to 5th from right in FIGS. 18A-18D).

[12] = tested on: blood coagulation (prothrombin time); test: Prothrombin time test; format: biochemical; details: for PT: without conjugate 11.5; for Potency score in PT test: most potent (1) to least potent (5)
[13] = tested on: STZ-induced diabetic BALB/c mice; test: Sciatic nerve conduction velocity in STZ diabetic neuropathy mice; format: in vivo; details: daily 100 microliter of 10 nM, p=0.016, listed as T5AACK
Protocol: The conduction velocity of sciatic nerves derived from an animal model of diabetes (streptozotocine (STZ)-induced diabetes; FIG. 20) was measured in mice treated daily with sham (STZ), or with the active drug TLDPR (peptide 5AA; SEQ ID NO: 2) nested between N alpha-tosyl and chloromethyl ketone, namely […] (termed hereinafter T5AACK) injected in 100 microliter of 10 nM, 100 nM and 1 micromolar.
Conduction velocities in the sciatic nerves of the mice were assessed by standard electrophysiology nerve conduction methods by a blind assessor. The nerve conduction studies were carried out one month after the induction of diabetes. A group of normal mice without diabetes served as controls. All STZ treated mice developed severe diabetes.
Streptozotocyn (STZ) was dissolved in citrate buffer pH 4.5 and a single dose of STZ was administered IP (140 mg/kg) to 12 weeks BALB/c mice. […] Mice developed diabetic neuropathy developed within 4 weeks after the induction of diabetes. […]
Conduction velocities in the sciatic nerves of the mice were assessed by standard electrophysiology nerve conduction methods by a blind assessor (FIG. 19).

[14] = tested on: C6 glioma cells; test: Proliferation (XTT) of C6 glioma cells; format: cell-based; details: 10 nM to 10 μM
Protocol: as §3

Protein C, sequence (P04070 212-461 limits assumed): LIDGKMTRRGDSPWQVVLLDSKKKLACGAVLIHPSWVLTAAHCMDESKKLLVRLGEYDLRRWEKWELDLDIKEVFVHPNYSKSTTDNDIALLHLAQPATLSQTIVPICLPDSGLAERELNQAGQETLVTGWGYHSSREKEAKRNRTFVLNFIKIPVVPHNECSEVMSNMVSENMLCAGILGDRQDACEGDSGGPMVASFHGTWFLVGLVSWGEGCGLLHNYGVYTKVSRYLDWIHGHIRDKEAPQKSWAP
Protein C, sequence (P04070 43-197 partner limits assumed): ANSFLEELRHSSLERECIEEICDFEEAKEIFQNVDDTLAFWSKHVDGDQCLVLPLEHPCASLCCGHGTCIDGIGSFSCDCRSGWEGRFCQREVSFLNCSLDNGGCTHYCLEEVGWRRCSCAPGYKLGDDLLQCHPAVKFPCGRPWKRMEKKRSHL

aPTT ([4]; 10 nM) [s]	aPTT ([4]; 1 μM) [s]	Potency score in aPTT test ([4]; 100 μM)	aPTT ([4]; 100 μM) [s]	aPC ([5]; 1 μM)	Potency score in Protein C activity test ([5]; 100 μM)	aPC ([5]; 100 μM)	IC50 [8] [nM]	TT ([9]; 10 nM) [s]	Potency score in TT test ([9]; 1 μM)	TT ([9]; 1 μM) [s]	TT ([9]; 100 μM) [s]	level at time molar [11] [µM]	PT ([12]; 10 nM) [s]	PT ([12]; 1 μM) [s]	Potency score in PT test ([12]; 100 μM)	PT ([12]; 100 μM)	Structure (SMILES)	Potency score in Factor Xa activity test ([6]; 100 μM)	Fxa ([6]; 100 μM)	other results
–	–	–	–	–	–	–	–	–	–	–	–	–	–	–	–	–	N=C(N)c1ccc(CC(NC(=O)CNS(=O)(=O)c2ccc3ccccc3c2)C(=O)N2CCCCC2)cc1 (racemic) [NAPAP, Na-(2-naphthyl-sulphonyl-glycyl)-DL-p-amidinophenylalanyl-piperidine]	–	–	conduction velocity ([1]; daily treatment for 2 weeks, TLCK 4.4 mg/kg, NAPAP 120 μM/kg, untreated EAN 23.6±1.2): 36.05±3.57 m/sec; proximal amplitude ([1]; untreated EAN 0.76±0.33, non-significant): 0.83±0.4 millivolts; latency ([1]; untreated EAN 1.43±0.023, control 0.54±0.03): 1.32 ± 0.33 ms; thrombin-like activity [2]: inhibited; conduction velocity ([3]; daily treatment for 2 weeks, TLCK 4.4 mg/kg, NAPAP 120 μM/kg, untreated STZ 28.5±2.8): 40.1±2.7 m/sec; proximal amplitude ([3]; untreated STZ 0.48±0.13, insignificant): 1.68±0.64 millivolts; latency ([3]; untreated STZ 1.93±0.139, control 1.29±0.057): 1.676 ± 0.132 ms
30	38.1	1	150	107	1	FAILED	0.007	14.1	1	> 80	> 80	~1	11.5	12.3	1	FAILED	Cc1ccc(S(=O)(=O)N[C@@H](CC(=O)O)C(=O)N2CCC[C@H]2C(=O)N[C@@H](CCCNC(=N)N)C(=O)CCl)cc1 [3AA, tosyl-DPR-CK] (Tos-Asp-Pro-Arg-CH2Cl)	1	FAILED	Fxa ([6]; 1 μM): 0.21; effect on coagulation, overall [7]: significantly more deleterious effects on coagulation; inhibition of cell proliferation ([10]; 1 nM): significant inhibition of cell proliferation; inhibition of cell proliferation ([10]; 10 nM): higher inhibition
30.1	30.5	4	63.9	109	3	20	0.7	13.8	4	17.8	> 80	< 0.01	12.1	11.5	4	14.5 s	Cc1ccc(S(=O)(=O)N[C@H](C(=O)N[C@@H](CC(C)C)C(=O)N[C@@H](CC(=O)O)C(=O)N2CCC[C@H]2C(=O)N[C@@H](CCCNC(=N)N)C(=O)CCl)[C@@H](C)O)cc1 [5AA, tosyl-TLDPR-CK] (Tos-TLDPR-CH2Cl)	4	0.13	sciatic nerve conduction velocity relative to sham treated mice [13]: followed a similar trend
–	–	–	–	–	–	–	–	–	–	–	–	–	–	–	–	–	CC(C)c1ccc(Cn2ccc3c4c(N)nc(NC5CC5)nc4ccc32)cc1.Cl.Cl [SCH79797, N3-Cyclopropyl-7-[[4-(1-methylethyl)phenyl]methyl]-7H-pyrrolo[3,2-f]quinazoline-1,3-diamine dihydrochloride, reference compound]	–	–	inhibition at 1 µM ([10]; Rattus norvegicus, Glioma cell, 1 μM, alone): 25%; proliferation [14]: inhibited proliferation in a dose-dependent manner
